Test results published in patent publication EP0684037B1, “Deodorant compositions” (UNILEVER PLC, priority 1994, dated 1995).

Tests used:
lipoxidase (EC1.13.1.13) = target: T1, lipoxidase (EC1.13.1.13) (Glycine max, UniProt P08170); experiment: Lipoxidase Inhibition Test (inhibition of the oxidation of linoleic acid by lipoxidase); assay type: biochemical; settings: Lipoxidase Inhibiting Capacity; 0.5% by weight solution in ethanol of the material in test substrate solution; borate buffer pH 9.0; 234 nm
T1 sequence (P08170 1-839): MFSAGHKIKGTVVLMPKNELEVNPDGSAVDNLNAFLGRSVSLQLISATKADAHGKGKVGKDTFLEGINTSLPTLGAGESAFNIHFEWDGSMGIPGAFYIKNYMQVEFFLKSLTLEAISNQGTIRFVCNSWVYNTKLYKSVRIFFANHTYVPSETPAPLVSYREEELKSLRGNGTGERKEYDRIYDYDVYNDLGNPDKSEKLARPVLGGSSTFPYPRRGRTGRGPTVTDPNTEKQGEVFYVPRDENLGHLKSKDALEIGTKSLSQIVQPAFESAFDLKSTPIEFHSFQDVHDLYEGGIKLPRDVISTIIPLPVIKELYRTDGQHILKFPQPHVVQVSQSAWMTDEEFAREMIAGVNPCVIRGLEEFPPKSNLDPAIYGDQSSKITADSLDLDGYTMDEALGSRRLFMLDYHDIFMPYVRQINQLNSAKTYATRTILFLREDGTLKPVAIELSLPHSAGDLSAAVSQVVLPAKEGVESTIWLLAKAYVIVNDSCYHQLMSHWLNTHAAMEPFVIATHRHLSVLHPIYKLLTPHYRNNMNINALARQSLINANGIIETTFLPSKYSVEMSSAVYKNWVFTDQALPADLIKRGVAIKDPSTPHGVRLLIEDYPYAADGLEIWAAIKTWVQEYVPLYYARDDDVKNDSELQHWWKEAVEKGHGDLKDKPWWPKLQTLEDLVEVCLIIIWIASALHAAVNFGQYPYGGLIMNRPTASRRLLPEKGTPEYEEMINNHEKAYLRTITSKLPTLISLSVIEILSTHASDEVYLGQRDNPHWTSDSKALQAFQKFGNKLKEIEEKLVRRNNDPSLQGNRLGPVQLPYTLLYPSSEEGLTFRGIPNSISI
Method: In this test the capacity of a material to inhibit the oxidation of linoleic acid by lipoxidase (EC1.13.1.13) to form a hydroperoxide is measured.
Aqueous 0.2M sodium borate solution (pH 9.0) is used as buffer solution.
A control substrate solution is prepared by dissolving linoleic acid (2.0 ml) in absolute ethanol (60 ml), diluting with distilled water to 100 ml and then adding borate buffer (100 ml) and absolute ethanol (300 ml).
A test substrate solution is prepared in the same way as the control substrate solution except that for the absolute ethanol (300 ml) is substituted the same volume of a 0.5% by weight solution in ethanol of the material to be tested.
A solution of the enzyme lipoxidase in the borate buffer and having an activity within the range of from 15,000 to 40,000 units per ml is prepared.
The activity of the lipoxidase in catalysing the oxidation of linoleic acid is first assayed spectrophotometrically using the control. An automatic continuously recording spectrophotometer is used and the increase in extinction at 234 nm (the peak of hydroperoxide) is measured to follow the course of oxidation, the enzyme concentration used being such that it gives an increase in optical density (ΔOD) at 234 nm within the range of from 0.6 to 1.0 units per minute. The following ingredients are placed in two 3 ml cuvettes:
The lipoxidase solution is added to the control cuvette last and the reaction immediately followed spectrophotometrically for about 3 minutes, with recording of the increase in optical density at 234 nm as a curve on a graph.
The capacity of a material to inhibit the oxidation is then measured using a test sample containing enzyme, substrate and a deodorant material. The following ingredients are placed in two 3 ml cuvettes.
The lipoxidase solution is added to the test sample cuvette last and the course of the reaction immediately followed as before.
The lipoxidase-inhibiting capacity of the material is then calculated from the formula 100 (S1-S2)/S1, where S1 is the slope of the curve obtained with the control and S2 is the slope of the curve obtained with the test sample, and thus expressed as % inhibitor. A material that gives at least 50% inhibition in the test is hereafter referred to as having a lipoxidase-inhibiting capacity of at least 50%.

[1] = Morpholine Test (depression of the partial vapour pressure of morpholine, Raoult variance ratio); assay type: physicochemical; settings: morpholine (0.25 g) and material (1 g), 37°C, headspace GC
Method: In this test the capacity of a material to depress the partial vapour pressure of morpholine more than that required by Raoult's Law is measured. Substances that undergo chemical reaction with morpholine, for example aldehydes, are to be regarded as excluded from the test.
Into a sample bottle of capacity 20 ml is introduced morpholine ([…]), the bottle fitted with a serum cap and then maintained at 37°C for 30 minutes for equilibrium to be reached. The gas in the headspace of the bottle is analysed by piercing the serum cap with a capillary needle through which nitrogen at 37°C is passed to increase the pressure in the bottle by a standard amount and then allowing the excess pressure to inject a sample from the headspace into gas chromatograph apparatus, which analyses it and provides a chromatographic trace curve with a peak due to morpholine, the area under which is proportional to the amount of morpholine in the sample.
The procedure is repeated under exactly the same conditions using instead of morpholine alone, morpholine (0.25 g) and the material to be tested (1 g); and also using the material (1 g) without the morpholine to check whether it gives an interference with the morpholine peak (which is unusual).
The procedure is repeated until reproducible results are obtained. The areas under the morpholine peaks are measured and any necessary correction due to interference by the material is made.
A suitable apparatus for carrying out the above procedure is a Perkin-Elmer Automatic GC Multifract F40 for Head Space Analysis. Further details of this method are described by Kolb in "CZ-Chemie-Technik", Vol 1, No 2, 87-91 (1972) and by Jentzsch et al in "Z. Anal. Chem." 236, 96-118 (1968).
The measured areas representing the morpholine concentration are proportional to the partial vapour pressure of the morpholine in the bottle headspace. If A is the area under the morpholine peak when only morpholine is tested and A' is the area due to morpholine when a material is present, the relative lowering of partial vapour pressure of morpholine by the material is given by 1-A'/A.
According to Raoult's Law, if at a given temperature the partial vapour pressure or morpholine in equilibrium with air above liquid morpholine is p, the partial vapour pressure p' exerted by morpholine in a homogeneous liquid mixture of morpholine and material at the same temperature is pM/(M+PC), where M and PC are the molar concentrations of morpholine and material.
The extend to which the behaviour of the mixture departs from Raoult's Law is given by the ratio (1-A'/A)/(87/(87+m/4)) [formula]
The above ratio, which will be referred to as the Raoult variance ratio, is calculated from the test results. Where a material is a mixture of compounds, a calculated or experimentally determined average molecular weight is used for m. A material that depresses the partial vapour pressure of morpholine by at least 10% more than that required by Raoult's Law in the Morpholine Test is one in which the Raoult variance ratio is at least 1.1.

Compound | LIC value (lipoxidase (EC1.13.1.13)) | RVR value [1]
O=C(OCc1ccccc1)c1ccccc1O [Benzyl salicylate] | 0% | 1.58
O=c1ccc2ccccc2o1 [Coumarin] | 58% | 1.22
CCOc1cc(C=O)ccc1O [Ethyl vanillin] | 100% | 1.43
COC(=O)c1c(C)cc(O)c(C)c1O [LRG 201] | 100% | 1.21
OCCc1ccccc1 [Phenylethyl alcohol] | 22% | 1.24
CC(=O)OC1CCC(C(C)(C)C)CC1 (centres unmarked) [p-t-Butyl cyclohexyl acetate] | 54% | 0.98
CC(C=O)Cc1ccc(C(C)(C)C)cc1 (stereo not drawn) [p-t-Butyl-α-methyl hydrocinnamic aldehyde] | 74% | 
COc1ccc2ccccc2c1 [β-Naphthyl methyl ether] | 100% | 
